Usually IC50 stands for the concentration that gives 50% inhibition.

For 32 compounds, IC50 and Ki results are on record in patent US9499535B2, “Kinase inhibitors” (ORIGENIS GMBH, priority 2011, dated 2016).

One assay has as its target LRRK2 (Homo sapiens, UniProt Q5S007). Nature of the assay: LRRK2 assay (LanthaScreen Eu Kinase Binding Assay). The settings on record: 5 nM LRRK2, 10 nM tracer 236, RT 1 h; read-out: LRRK2 Activites: IC50. The source says:
Binding of the tracer to the kinase is detected using a europium-labeled anti-tag antibody, which binds to the kinase of interest. […] Binding of an inhibitor to the kinase competes for binding with the tracer, resulting in a loss of FRET. The fluorescence intensity ratio is directly proportional to the amount of peptide phosphorylation.
The inhibitor concentration was plotted versus the emission ratio to determine the IC50 using XLFit 5.0 (IDBS, Guildford) to fit to a sigmoidal dose response curve with a variable slope.
In general terms: TR-FRET usually uses a lanthanide donor and a delayed reading to cut background.

For another assay, the target named is T1, SYK kinase (Homo sapiens, UniProt P43405).
T1 construct: purchased Invitrogen, Carlsbad
Nature of the assay: SYK assay (OMNIA Kinase Assay, Invitrogen). The format is biochemical. The settings on record: apparent Ki calculated from the IC50 using the Cheng-Prusoff equation; 1 mM ATP, 10 μM Peptide Substrate; read-out: SYK Activities: Ki. The protocol: In the assay OMNIA® KINASE ASSAY by Invitrogen Corporation (Carlsbad) the effect of invention of a compound on the phosphorylation is determined by measurement of fluorescence intensity of a chelation-enhanced fluorophore called SOX. Upon phosphorylation of the peptide by the kinase of interest, Mg2+ is chelated to form a bridge between the SOX moiety and the phosphate group that is transferred to the specific tyrosine on the peptide. The fluorescence intensity is directly proportional to the amount of peptide phosphorylation.
To the wells of an 384 well small volume plate (Greiner, Frickenhausen) are added (i) the compound under test in 5% DMSO/distilled water (2 μl), (ii) 16 μl of the master mix containing ATP, DTT, Kinase Reaction Buffer, Omina Peptide Substrate Tyr 7 resulting in a final concentration of 1 mM ATP, 0.2 mM DTT and 10 μM Peptide Substrate.
The Master Mix and the assay plate was incubated to reaction temperature before the measurement (30° C.). The reaction was started with addition of (iii) 2 μl 4 μg/ml SYK kinase (Invitrogen, Carlsbad). During measurement fluorescence intensitiy readings were collected using a TECAN M1000 at a wavelength of λex 360/λem 485 nm every 30 s for 30 minutes. The reaction velocity was plotted versus the inhibitor concentration to determine the IC50 using XLFit 5.0 (IDBS, Guildford) to fit to a sigmoidal dose response curve, and the apparent Ki values were calculated from the IC50 using the Cheng-Prusoff equation (Cheng, Y.; Prusoff, W. H. Biochem. Pharmacol. 22, 3099-3108, 1973).

Chain of LRRK2 (Q5S007 970-2527 limits assumed): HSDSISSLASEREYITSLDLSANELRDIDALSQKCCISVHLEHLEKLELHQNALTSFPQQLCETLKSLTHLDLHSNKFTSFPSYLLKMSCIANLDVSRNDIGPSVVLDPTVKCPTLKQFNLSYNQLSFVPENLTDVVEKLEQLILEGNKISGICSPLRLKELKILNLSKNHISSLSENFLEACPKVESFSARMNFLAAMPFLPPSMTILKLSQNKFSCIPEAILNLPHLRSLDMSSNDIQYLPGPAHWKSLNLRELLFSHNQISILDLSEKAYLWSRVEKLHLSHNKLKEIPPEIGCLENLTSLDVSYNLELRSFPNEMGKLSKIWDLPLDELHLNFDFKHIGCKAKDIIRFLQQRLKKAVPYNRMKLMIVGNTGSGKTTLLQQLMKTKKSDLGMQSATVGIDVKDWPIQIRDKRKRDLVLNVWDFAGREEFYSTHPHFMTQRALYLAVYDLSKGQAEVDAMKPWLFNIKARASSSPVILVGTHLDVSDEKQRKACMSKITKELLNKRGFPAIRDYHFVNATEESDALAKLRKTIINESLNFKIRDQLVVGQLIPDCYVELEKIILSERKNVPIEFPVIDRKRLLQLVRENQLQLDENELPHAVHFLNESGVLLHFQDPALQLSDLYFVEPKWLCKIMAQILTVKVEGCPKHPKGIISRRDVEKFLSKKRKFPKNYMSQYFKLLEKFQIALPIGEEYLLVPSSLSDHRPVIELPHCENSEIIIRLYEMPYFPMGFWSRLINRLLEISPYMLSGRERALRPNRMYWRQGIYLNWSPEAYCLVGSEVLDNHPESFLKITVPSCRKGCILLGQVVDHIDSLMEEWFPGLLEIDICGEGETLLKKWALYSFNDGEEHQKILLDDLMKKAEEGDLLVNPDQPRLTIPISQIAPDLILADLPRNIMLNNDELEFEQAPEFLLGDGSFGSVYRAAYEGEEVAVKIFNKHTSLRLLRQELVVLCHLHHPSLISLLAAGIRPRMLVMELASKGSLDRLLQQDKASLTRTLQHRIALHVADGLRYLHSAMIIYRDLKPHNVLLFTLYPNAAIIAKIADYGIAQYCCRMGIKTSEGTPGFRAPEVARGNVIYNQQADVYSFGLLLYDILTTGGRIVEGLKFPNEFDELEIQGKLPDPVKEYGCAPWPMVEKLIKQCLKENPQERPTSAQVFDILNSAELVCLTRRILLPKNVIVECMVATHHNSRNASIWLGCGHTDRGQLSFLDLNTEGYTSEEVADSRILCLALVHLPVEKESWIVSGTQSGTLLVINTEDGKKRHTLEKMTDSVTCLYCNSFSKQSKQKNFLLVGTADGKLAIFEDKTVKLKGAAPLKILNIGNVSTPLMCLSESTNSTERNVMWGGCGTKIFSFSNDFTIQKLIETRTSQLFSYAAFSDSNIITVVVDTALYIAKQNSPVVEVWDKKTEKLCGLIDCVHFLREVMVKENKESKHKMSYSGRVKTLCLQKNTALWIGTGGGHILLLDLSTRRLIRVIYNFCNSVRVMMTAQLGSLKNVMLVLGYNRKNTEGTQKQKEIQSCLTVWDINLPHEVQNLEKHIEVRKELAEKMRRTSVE

In the case of `COc1cc(Nc2nc3ccccc3c3c[nH]nc23)cc(OC)c1OC` [Example #3, (2H-Pyrazolo[3,4-c]quinolin-4-yl)-(3,4,5-trimethoxy-phenyl)-amine], on LRRK2, the IC50 lay within 0.1 to 1 µM. Also, the Ki at SYK kinase was 0.1 to 1 µM.

For the compound `COc1ccc2nc(Nc3ccc4c[nH]nc4c3)c3n[nH]cc3c2c1` [Example #15, (2H-Indazol-6-yl)-(8-methoxy-2H-pyrazolo[3,4-c]quinolin-4-yl)-amine], on LRRK2, the IC50 fell in the range of 0.1 to 1 µM.

For `COc1ccc2nc(Nc3cccc(C)c3)c3n[nH]cc3c2c1` [Example #37, (8-Methoxy-2H-pyrazolo[3,4-c]quinolin-4-yl)-m-tolyl-amine], the IC50 on LRRK2 is 0.1 to 1 µM. Also, the Ki on SYK kinase was 0.1 to 1 µM.

For the compound `COc1ccc2nc(Nc3ccc4cnn(C)c4c3)c3n[nH]cc3c2c1` [Example #40, (8-Methoxy-2H-pyrazolo[3,4-c]quinolin-4-yl)-(1-methyl-1H-indazol-6-yl)-amine], the IC50 on LRRK2 lay within 0.1 to 1 µM. Moreover, at SYK kinase, the Ki is less than 0.01 µM.

In the case of `Brc1ccc2nc(Nc3ccc4[nH]ncc4c3)c3n[nH]cc3c2c1` [Example #45, (8-Bromo-2H-pyrazolo[3,4-c]quinolin-4-yl)-(1H-indazol-5-yl)-amine], the IC50 at LRRK2 lay within 0.1 to 1 µM. In addition, at SYK kinase, the Ki is 0.01 to 0.1 µM.

Consider `O=C1COc2ccc(Nc3nc4ccccc4c4cn[nH]c34)cc2N1` [Example #46, 6-(3H-Pyrazolo[3,4-c]quinolin-4-ylamino)-4H-benzo[1,4]oxazin-3-one], for which the IC50 on LRRK2 lay in the range of 0.1 to 1 µM. Further, the Ki on SYK kinase is 0.01 to 0.1 µM.

Consider `COc1ccc2nc(Nc3ccc4c(c3)NC(=O)CO4)c3[nH]ncc3c2c1` [Example #47, 6-(8-Methoxy-3H-pyrazolo[3,4-c]quinolin-4-ylamino)-4H-benzo[1,4]oxazin-3-one], for which the IC50 at LRRK2 was in the range of 0.01 to 0.1 µM.

For the compound `COc1ccc2nc(Nc3ccc4[nH]nnc4c3)c3n[nH]cc3c2c1` [Example #48, (1H-Benzotriazol-5-yl)-(8-methoxy-2H-pyrazolo[3,4-c]quinolin-4-yl)-amine], at LRRK2, the IC50 fell in the range of 0.1 to 1 µM.

With `COc1ccc2nc(Nc3ccc(N4CCCCC4)cc3)c3n[nH]cc3c2c1` [Example #50, (8-Methoxy-2H-pyrazolo[3,4-c]quinolin-4-yl)-(4-piperidin-1-yl-phenyl)-amine], at LRRK2, the IC50 was in the range of 0.1 to 1 µM. The Ki on SYK kinase was 0.01 to 0.1 µM.

Turning to `COc1ccc2nc(Nc3ccc(N(C)C)cc3)c3n[nH]cc3c2c1` [Example #51, N-(8-Methoxy-2H-pyrazolo[3,4-c]quinolin-4-yl)-N′,N′-dimethyl-benzene-1,4-diamine], the IC50 at LRRK2 fell in the range of 0.01 to 0.1 µM. In addition, at SYK kinase, the Ki was 0.01 to 0.1 µM.

Take `COc1ccc2nc(Nc3ccc(N4CCOCC4)cc3)c3n[nH]cc3c2c1` [Example #54, (8-Methoxy-2H-pyrazolo[3,4-c]quinolin-4-yl)-(4-morpholin-4-yl-phenyl)-amine]: at LRRK2, the IC50 lay within 0.01 to 0.1 µM. Further, the Ki at SYK kinase was 0.01 to 0.1 µM.

Turning to `COc1ccc2nc(Nc3ccc(C#N)cc3)c3n[nH]cc3c2c1` [Example #59, 4-(8-Methoxy-2H-pyrazolo[3,4-c]quinolin-4-ylamino)-benzonitrile], the IC50 at LRRK2 fell in the range of 0.1 to 1 µM. Further, on SYK kinase, the Ki was 0.1 to 1 µM.

Turning to `COc1ccc(Nc2nc3ccc(OC)cc3c3c[nH]nc23)cc1` [Example #61, (4-Methoxy-phenyl)-(8-methoxy-2H-pyrazolo[3,4-c]quinolin-4-yl)-amine], the IC50 on LRRK2 was 0.1 to 1 µM. In addition, the Ki at SYK kinase is 0.01 to 0.1 µM.

Consider `COc1ccc2nc(Nc3cc[nH]n3)c3n[nH]cc3c2c1` [Example #66, (8-Methoxy-2H-pyrazolo[3,4-c]quinolin-4-yl)-(1H-pyrazol-3-yl)-amine], for which, at LRRK2, the IC50 was 0.1 to 1 µM. On SYK kinase, the Ki was 0.01 to 0.1 µM.

For `COc1ccc2nc(Nc3ccc4c[nH]nc4c3)c3n[nH]cc3c2c1` [Example #74, (1H-Indazol-6-yl)-(8-methoxy-2H-pyrazolo[3,4-c]quinolin-4-yl)-amine], the IC50 on LRRK2 lay within 0.01 to 0.1 µM. At SYK kinase, the Ki was 0.01 to 0.1 µM.

On to `COc1ccc2nc(Nc3cc(-c4ccccc4)n[nH]3)c3n[nH]cc3c2c1` [Example #77, (8-Methoxy-2H-pyrazolo[3,4-c]quinolin-4-yl)-(5-phenyl-2H-pyrazol-3-yl)-amine], for which the IC50 on LRRK2 was less than 0.01 µM. Moreover, on SYK kinase, the Ki is 0.01 to 0.1 µM.

With `COc1ccc2nc(Nc3cccc(N4CCOCC4)c3)c3[nH]ncc3c2c1` [Example #81, (8-Methoxy-3H-pyrazolo[3,4-c]quinolin-4-yl)-(3-morpholin-4-yl-phenyl)-amine], the IC50 at LRRK2 was 0.1 to 1 µM. Further, on SYK kinase, the Ki was 0.1 to 1 µM.

Take `COc1ccc2nc(Nc3cc(C4CCC4)n[nH]3)c3n[nH]cc3c2c1` [Example #85, (5-Cyclobutyl-2H-pyrazol-3-yl)-(8-methoxy-2H-pyrazolo[3,4-c]quinolin-4-yl)-amine]: the IC50 at LRRK2 was less than 0.01 µM. Besides, at SYK kinase, the Ki is less than 0.01 µM.

With `COc1ccc2nc(Nc3ccc4c(c3)NCC(C)(C)S4)c3n[nH]cc3c2c1` [Example #88, (2,2-Dimethyl-3,4-dihydro-2H-benzo[1,4]thiazin-6-yl)-(8-methoxy-2H-pyrazolo[3,4-c]quinolin-4-yl)-amine], on LRRK2, the 50% inhibitory concentration (IC50) was less than 0.01 µM. Moreover, on SYK kinase, the Ki was 0.01 to 0.1 µM.

In the case of `CCOc1cc2nc(Nc3ccc4cn[nH]c4c3)c3n[nH]cc3c2cc1OCC` [Example #92, (7,8-Diethoxy-2H-pyrazolo[3,4-c]quinolin-4-yl)-(1H-indazol-6-yl)-amine], on LRRK2, the IC50 lay in the range of 0.1 to 1 µM. Besides, on SYK kinase, the Ki was 0.01 to 0.1 µM.

In the case of `COc1ccc2nc(Nc3ccc4c(c3)NC(=O)CC4)c3n[nH]cc3c2c1` [Example #93, 7-(8-Methoxy-2H-pyrazolo[3,4-c]quinolin-4-ylamino)-3,4-dihydro-1H-quinolin-2-one], the IC50 at LRRK2 is less than 0.01 µM. Also, the Ki on SYK kinase is less than 0.01 µM.

Turning to `COc1ccc2nc(Nc3ccc4c(c3)NC(=O)CS4)c3[nH]ncc3c2c1` [Example #94, 6-(8-Methoxy-3H-pyrazolo[3,4-c]quinolin-4-ylamino)-4H-benzo[1,4]thiazin-3-one], at LRRK2, the IC50 lay in the range of 0.01 to 0.1 µM. Also, on SYK kinase, the Ki was 0.01 to 0.1 µM.

As to `COc1ccc2nc(Nc3cc(C(C)(C)C)[nH]n3)c3[nH]ncc3c2c1` [Example #95, (5-tert-Butyl-1H-pyrazol-3-yl)-(8-methoxy-3H-pyrazolo[3,4-c]quinolin-4-yl)-amine], at LRRK2, the IC50 was in the range of 0.01 to 0.1 µM. Further, the Ki on SYK kinase was 0.01 to 0.1 µM.

Take `COc1ccc2nc(Nc3cc(C)n[nH]3)c3[nH]ncc3c2c1` [Example #96, (8-Methoxy-3H-pyrazolo[3,4-c]quinolin-4-yl)-(5-methyl-2H-pyrazol-3-yl)-amine]: the IC50 at LRRK2 lay in the range of 0.01 to 0.1 µM. For the same compound, the Ki at SYK kinase is 0.01 to 0.1 µM.

As for `COc1ccc2nc(Nc3cc(C4CC4)[nH]n3)c3[nH]ncc3c2c1` [Example #97, (5-Cyclopropyl-1H-pyrazol-3-yl)-(8-methoxy-3H-pyrazolo[3,4-c]quinolin-4-yl)-amine], the IC50 on LRRK2 was in the range of 0.01 to 0.1 µM. The Ki on SYK kinase is less than 0.01 µM.

Take `COc1ccc2nc(Nc3ccc4c(c3)OCO4)c3n[nH]cc3c2c1` [Example #100, Benzo[1,3]dioxol-5-yl-(8-methoxy-2H-pyrazolo[3,4-c]quinolin-4-yl)-amine]: at LRRK2, the IC50 is 0.1 to 1 µM. Moreover, the Ki on SYK kinase was 0.01 to 0.1 µM.

For the compound `COc1ccc2nc(Nc3ccc4c(c3)OCCO4)c3n[nH]cc3c2c1` [Example #101, (2,3-Dihydro-benzo[1,4]dioxin-6-yl)-(8-methoxy-2H-pyrazolo[3,4-c]quinolin-4-yl)-amine], the IC50 on LRRK2 was in the range of 0.1 to 1 µM. Moreover, the Ki at SYK kinase is 0.01 to 0.1 µM.

As for `COc1ccc2nc(Nc3ccc(N4CCOCC4)nc3)c3[nH]ncc3c2c1` [Example #103, (8-Methoxy-3H-pyrazolo[3,4-c]quinolin-4-yl)-(6-morpholin-4-yl-pyridin-3-yl)-amine], the IC50 on LRRK2 fell in the range of 0.1 to 1 µM. The Ki at SYK kinase was 0.01 to 0.1 µM.

Consider `COc1ccc2nc(Nc3ccc(C(C)=O)cc3)c3n[nH]cc3c2c1` [Example #145, 1-[4-(8-Methoxy-2H-pyrazolo[3,4-c]quinolin-4-ylamino)-phenyl]-ethanone], for which the IC50 on LRRK2 was 0.1 to 1 µM.

Consider `COc1ccc(CCNC(=O)Cc2ccc(Nc3nc4ccc(OC)cc4c4c[nH]nc34)cc2)cc1` [Example #215], for which the IC50 at LRRK2 was 0.1 to 1 µM.

On to `COc1ccc2nc(Nc3ccc(N4CCOCC4)c([N+](=O)[O-])c3)c3n[nH]cc3c2c1` [Example #359, 8-methoxy-N-(4-morpholino-3-nitrophenyl)-2H-pyrazolo[3,4-c]quinolin-4-amine], for which the Ki at SYK kinase was less than 0.01 µM.

With `Fc1cc(Nc2nc3cccc(F)c3c3cn[nH]c23)ccc1N1CCOCC1` [Example #364, 9-fluoro-N-(3-fluoro-4-morpholinophenyl)-3H-pyrazolo[3,4-c]quinolin-4-amine], on LRRK2, the IC50 lay in the range of 0.1 to 1 µM.
